For four molecules, Inhibition rate, Edema weight and LD50 results are on record in US5700789A, “Antiallergic composition comprising a phosphoric diester compound” (Senju Pharmaceutical Co., Ltd., priority 1995, dated 1997).

Where a name gives a salt, the structure may show the parent alone.

In data set [1] the test system is palpebral edema induced by the histamine releaser Compound 48/80. In words: Palpebral edema induced by the histamine releaser Compound 48/80 in rats (topical instillation). Conditions: 5 μl/eye of 0.1% test material; for Inhibition rate: edema inhibition rate with respect to the control group, 4 hr after Compound 48/80; for Edema weight: male SD rats, 6 instillations, wet weight 4 hr after Compound 48/80, * p<0.001 vs control. The data set is classed as in vivo, rat (male SD). The method, then: The effect of the compound of the invention on the palpebral edema induced by the histamine releaser Compound 48/80 (the condensation product of N-methyl-p-methoxy-phenethylamine with formaldehyde) (Sigma Chemical Company) was evaluated.
(1) 0.1% L-ascorbyl DL-α-tocopheryl phosphate sodium (Abbreviation: EPC-Na) (dissolved in physiological saline and adjusted to pH 7.0)
(2) 0.1% diphenhydramine hydrochloride (an antihistaminic) (dissolved in physiological saline)
Method: Male SD rats weighing about 180 g were used.
The rats were divided into three groups, i.e. a control group, an EPC-Na group, and a diphenhydramine HCl group, and 20 μl/eye of 0.008% Compound 48/80 (dissolved in physiological saline) was injected subconjunctivally at both lids to induce palpebral edema. Two (2), 1, and 0.5 hr before subconjunctival injection and 0.5, 1.5, and 2.5 hr after the injection, rats in the control group were topically treated with 5 μl/eye of physiological saline and those in the EPC-Na group and diphenhydramine HCl group were similarly treated with 5 μl/eye of the corresponding test materials. Four (4) hr after injection of Compound 48/80 (1.5 hr after the last instillation), the rats were sacrificed and the edematous portion of the palpebra was excised, its wet weight (mg) was determined, and the edema inhibition rate (%) with respect to the control group was calculated.

Data set [2] has as its system Type III allergic conjunctivitis. The data set can be described thus: Type III allergic conjunctivitis in rats (rat antirabbit serum injected subconjunctivally). The format is in vivo. The note with it: 5 μl/eye, 6 instillations, 0.1% EPC-Na or 0.1% as dexamethasone, wet weight 0.5 hr after last instillation, mean ± S.D. (n = 4), * p<0.001 vs control. On the procedure: The effect of the compound of the invention on Type III allergic conjunctivitis was evaluated.
(1) 0.1% EPC-Na (dissolved in physiological saline)
(2) 0.15% dexamethasone sodium metasulfobenzoate
(Visualin Ophthalmic Solution (registered trademark, Senju Pharmaceutical Co. Ltd.) (0.1% as dexamethasone, hereinafter referred to briefly as dexamethasone)
The rats were divided into three groups, namely a control group, an EPC-Na group and a dexamethasone group, and 30 μl of rat antirabbit serum was injected subconjunctivally at both lids. Two (2), 1.5, and 0.5 hr before subconjunctival injection and 0.5, 1.5, and 2.5 hr after the injection, rats in the control group were topically treated with 5 μl/eye of physiological saline and those in the test groups were similarly treated with 5 μl/eye of the respective test materials. At 0.5 hr after the last instillation, the rats were sacrificed, the edema weight (wet weight/mg) was determined, and the inhibition rate (%) with respect to the control group was calculated.

Data set [3] can be described thus: Acute toxicity (LD50) in rats. Conditions: rat, in vivo, iv; i.v. (rats).

As a reminder, the LD50 is the dose expected to kill half of the subjects tested. Read a low LD50 as a more toxic substance.

In turn, `Cc1c(C)c2c(c(C)c1OP(=O)(O)OC1=C(O)[C@@H]([C@@H](O)CO)OC1=O)CCC(C)(CCCC(C)CCCC(C)CCCC(C)C)O2` (mixture of isomers) [EPC-Na, L-ascorbyl DL-α-tocopheryl phosphate sodium] displayed an Inhibition rate in data set [1] of 33.5%. Moreover, the Edema weight in data set [1] is 76.1 ± 11.6 mg; in data set [2], 57.4 ± 8.1 mg.

`Cc1c(C)c2c(c(C)c1OP(=O)(O)OC1=C(O)[C@@H]([C@@H](O)CO)OC1=O)CCC(C)(CCCC(C)CCCC(C)CCCC(C)C)O2` (mixture of isomers) [EPC-K, L-ascorbyl DL-α-tocopheryl phosphate potassium] yielded a 50% lethal dose (LD50) in data set [3] of no less than 100 mg/kg.

On to `C[C@@H]1C[C@H]2[C@@H]3CCC4=CC(=O)C=C[C@]4(C)[C@@]3(F)[C@@H](O)C[C@]2(C)[C@@]1(O)C(=O)COC(=O)c1cccc(S(=O)(=O)O)c1` [Dexamethasone, dexamethasone sodium metasulfobenzoate, reference compound], for which the Edema weight in data set [2] was found to be 58.2 ± 3.8 mg.

In data set [1], `CN(C)CCOC(c1ccccc1)c1ccccc1` [Diphenhydramine HCl, diphenhydramine hydrochloride, reference compound] showed an Inhibition rate of 44.8% and an Edema weight of 63.2 ± 8.2 mg.
